In ChEMBL document CHEMBL1153461, “Inhibitory effects of flavonoids isolated from Fragaria ananassa Duch on IgE-mediated degranulation in rat basophilic leukemia RBL-2H3” (Bioorg Med Chem, 2009):
Calls of active or inactive are those of the source. The rule behind the calls is not given here.

tested on: RBL-2H3; experiment: Inhibition of JNK phosphorylation in DNP-BSA-stimulated rat RBL2H3 cells by Western blotting; format: cell-based; settings: not given

| Molecule | Activity |
| --- | --- |
| O=C(/C=C/c1ccccc1)Oc1cc(O)c2c(=O)cc(-c3ccccc3)oc2c1 | Active |
| O=c1c(O)c(-c2ccc(O)cc2)oc2cc(O)cc(O)c12 | Active |
| O=C(/C=C/c1ccc(O)cc1)OC[C@H]1O[C@@H](Oc2c(-c3ccc(O)cc3)oc3cc(O)cc(O)c3c2=O)[C@H](O)[C@@H](O)[C@@H]1O | Active |
| O=c1cc(-c2ccccc2)oc2cc(O)cc(O)c12 | inactive |

target: T1, 1-phosphatidylinositol 4,5-bisphosphate phosphodiesterase gamma-1 (Rattus norvegicus) (UniProt P10686); experiment: Inhibition of PLCgamma1 phosphorylation in DNP-BSA-stimulated rat RBL2H3 cells by Western blotting; format: cell-based; settings: RBL-2H3
T1 sequence (whole entry): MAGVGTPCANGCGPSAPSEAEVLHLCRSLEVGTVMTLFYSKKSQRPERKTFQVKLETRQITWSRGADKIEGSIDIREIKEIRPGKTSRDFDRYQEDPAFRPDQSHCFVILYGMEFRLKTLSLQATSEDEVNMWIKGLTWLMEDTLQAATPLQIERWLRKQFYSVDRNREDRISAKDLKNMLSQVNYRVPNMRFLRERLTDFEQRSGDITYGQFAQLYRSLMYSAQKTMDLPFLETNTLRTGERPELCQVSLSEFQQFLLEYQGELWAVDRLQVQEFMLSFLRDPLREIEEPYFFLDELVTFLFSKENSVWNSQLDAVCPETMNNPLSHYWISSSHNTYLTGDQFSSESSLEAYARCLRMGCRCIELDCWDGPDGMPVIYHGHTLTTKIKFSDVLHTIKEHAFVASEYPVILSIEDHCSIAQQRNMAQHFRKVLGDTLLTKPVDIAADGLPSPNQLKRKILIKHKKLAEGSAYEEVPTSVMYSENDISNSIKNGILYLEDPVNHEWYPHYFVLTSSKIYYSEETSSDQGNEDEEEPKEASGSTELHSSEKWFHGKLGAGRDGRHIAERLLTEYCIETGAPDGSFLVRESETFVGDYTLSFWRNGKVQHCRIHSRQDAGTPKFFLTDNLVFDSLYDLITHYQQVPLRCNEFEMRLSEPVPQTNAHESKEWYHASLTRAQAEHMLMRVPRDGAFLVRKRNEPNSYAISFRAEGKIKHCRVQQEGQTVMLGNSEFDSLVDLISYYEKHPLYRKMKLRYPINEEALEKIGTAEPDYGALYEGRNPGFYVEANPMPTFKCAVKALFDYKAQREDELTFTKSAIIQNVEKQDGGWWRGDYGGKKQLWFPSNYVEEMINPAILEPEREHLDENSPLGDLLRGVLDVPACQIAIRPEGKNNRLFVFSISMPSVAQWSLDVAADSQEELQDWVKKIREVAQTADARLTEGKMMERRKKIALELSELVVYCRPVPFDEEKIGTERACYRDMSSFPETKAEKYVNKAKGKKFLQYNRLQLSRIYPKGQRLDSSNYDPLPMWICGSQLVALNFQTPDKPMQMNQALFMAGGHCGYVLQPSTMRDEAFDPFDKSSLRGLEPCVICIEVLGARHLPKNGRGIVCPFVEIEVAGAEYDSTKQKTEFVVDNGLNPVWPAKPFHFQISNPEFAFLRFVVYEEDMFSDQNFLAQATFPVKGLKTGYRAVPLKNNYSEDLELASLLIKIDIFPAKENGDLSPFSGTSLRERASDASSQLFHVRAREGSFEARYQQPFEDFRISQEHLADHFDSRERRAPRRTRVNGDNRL

| Molecule | Activity |
| --- | --- |
| O=C(O[C@@H]1Cc2c(O)cc(O)cc2O[C@@H]1c1cc(O)c(O)c(O)c1)c1cc(O)c(O)c(O)c1 | inactive |
| O=C(/C=C/c1ccccc1)Oc1cc(O)c2c(=O)cc(-c3ccccc3)oc2c1 | inactive |
| O=c1c(O)c(-c2ccc(O)cc2)oc2cc(O)cc(O)c12 | Active |
| O=C(/C=C/c1ccc(O)cc1)OC[C@H]1O[C@@H](Oc2c(-c3ccc(O)cc3)oc3cc(O)cc(O)c3c2=O)[C@H](O)[C@@H](O)[C@@H]1O | inactive |
| O=c1cc(-c2ccccc2)oc2cc(O)cc(O)c12 | inactive |

tested on: RBL-2H3; experiment: Inhibition of p38 phosphorylation in DNP-BSA-stimulated rat RBL2H3 cells by Western blotting; format: cell-based; settings: not given

| Molecule | Activity |
| --- | --- |
| O=C(/C=C/c1ccccc1)Oc1cc(O)c2c(=O)cc(-c3ccccc3)oc2c1 | Active |
| O=c1c(O)c(-c2ccc(O)cc2)oc2cc(O)cc(O)c12 | Active |
| O=C(/C=C/c1ccc(O)cc1)OC[C@H]1O[C@@H](Oc2c(-c3ccc(O)cc3)oc3cc(O)cc(O)c3c2=O)[C@H](O)[C@@H](O)[C@@H]1O | Active |
| O=c1cc(-c2ccccc2)oc2cc(O)cc(O)c12 | inactive |

tested on: RBL-2H3; experiment: Antiallergic activity in IgE-sensitized DNP-BSA-stimulated rat RBL2H3 cells assessed as decrease in intracellular Ca2+ level by fluorimetry; format: functional, cell-based; settings: not given

| Molecule | Activity |
| --- | --- |
| O=C(/C=C/c1ccccc1)Oc1cc(O)c2c(=O)cc(-c3ccccc3)oc2c1 | Active |
| O=c1c(O)c(-c2ccc(O)cc2)oc2cc(O)cc(O)c12 | Active |
| O=C(/C=C/c1ccc(O)cc1)OC[C@H]1O[C@@H](Oc2c(-c3ccc(O)cc3)oc3cc(O)cc(O)c3c2=O)[C@H](O)[C@@H](O)[C@@H]1O | Active |
| O=c1cc(-c2ccccc2)oc2cc(O)cc(O)c12 | Active |

tested on: RBL-2H3; experiment: Inhibition of ERK in DNP-BSA-stimulated rat RBL2H3 cells assessed as reduction in cPLA2 phosphorylation by Western blotting; format: cell-based; settings: not given

| Molecule | Activity |
| --- | --- |
| O=C(/C=C/c1ccccc1)Oc1cc(O)c2c(=O)cc(-c3ccccc3)oc2c1 | Active |
| O=c1c(O)c(-c2ccc(O)cc2)oc2cc(O)cc(O)c12 | Active |
| O=C(/C=C/c1ccc(O)cc1)OC[C@H]1O[C@@H](Oc2c(-c3ccc(O)cc3)oc3cc(O)cc(O)c3c2=O)[C@H](O)[C@@H](O)[C@@H]1O | Active |

tested on: RBL-2H3; experiment: Antioxidant activity in IgE-sensitized rat RBL2H3 cells assessed as reduction in DNP-BSA-mediated intracellular ROS production at 50 uM after 30 mins by fluorimetry; format: functional, cell-based; settings: not given

| Molecule | Activity |
| --- | --- |
| O=C(/C=C/c1ccccc1)Oc1cc(O)c2c(=O)cc(-c3ccccc3)oc2c1 | Active |
| O=C(/C=C/c1ccc(O)cc1)OC[C@H]1O[C@@H](Oc2c(-c3ccc(O)cc3)oc3cc(O)cc(O)c3c2=O)[C@H](O)[C@@H](O)[C@@H]1O | Active |

tested on: RBL-2H3; experiment: Inhibition of ERK phosphorylation in DNP-BSA-stimulated rat RBL2H3 cells by Western blotting; format: cell-based; settings: not given

| Molecule | Activity |
| --- | --- |
| O=C(/C=C/c1ccccc1)Oc1cc(O)c2c(=O)cc(-c3ccccc3)oc2c1 | Active |
| O=c1c(O)c(-c2ccc(O)cc2)oc2cc(O)cc(O)c12 | Active |
| O=C(/C=C/c1ccc(O)cc1)OC[C@H]1O[C@@H](Oc2c(-c3ccc(O)cc3)oc3cc(O)cc(O)c3c2=O)[C@H](O)[C@@H](O)[C@@H]1O | Active |
| O=c1cc(-c2ccccc2)oc2cc(O)cc(O)c12 | inactive |

target: Tyrosine-protein kinase SYK (Rattus norvegicus) (UniProt Q64725); experiment: Inhibition of Syk phosphorylation in DNP-BSA-stimulated rat RBL2H3 cells by Western blotting; format: cell-based; settings: RBL-2H3
Sequence (Q64725 whole entry, looked up): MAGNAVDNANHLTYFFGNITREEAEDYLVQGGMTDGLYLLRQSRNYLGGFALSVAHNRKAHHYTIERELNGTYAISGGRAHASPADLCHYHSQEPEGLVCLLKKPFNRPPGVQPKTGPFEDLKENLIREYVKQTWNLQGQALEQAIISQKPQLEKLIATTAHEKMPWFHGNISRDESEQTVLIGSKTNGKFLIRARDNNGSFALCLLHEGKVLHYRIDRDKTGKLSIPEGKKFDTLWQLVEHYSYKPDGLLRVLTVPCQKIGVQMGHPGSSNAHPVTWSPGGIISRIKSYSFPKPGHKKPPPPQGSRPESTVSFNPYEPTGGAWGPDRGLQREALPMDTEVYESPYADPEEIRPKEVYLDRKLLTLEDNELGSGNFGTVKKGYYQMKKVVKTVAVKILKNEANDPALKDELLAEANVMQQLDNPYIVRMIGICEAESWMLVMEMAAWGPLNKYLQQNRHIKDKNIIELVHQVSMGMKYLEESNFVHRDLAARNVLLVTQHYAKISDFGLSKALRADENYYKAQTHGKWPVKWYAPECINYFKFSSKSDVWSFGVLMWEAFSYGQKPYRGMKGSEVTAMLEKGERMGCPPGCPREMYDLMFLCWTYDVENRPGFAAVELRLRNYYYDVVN

| Molecule | Activity |
| --- | --- |
| O=C(O[C@@H]1Cc2c(O)cc(O)cc2O[C@@H]1c1cc(O)c(O)c(O)c1)c1cc(O)c(O)c(O)c1 | inactive |
| O=C(/C=C/c1ccccc1)Oc1cc(O)c2c(=O)cc(-c3ccccc3)oc2c1 | inactive |
| O=c1c(O)c(-c2ccc(O)cc2)oc2cc(O)cc(O)c12 | Active |
| O=C(/C=C/c1ccc(O)cc1)OC[C@H]1O[C@@H](Oc2c(-c3ccc(O)cc3)oc3cc(O)cc(O)c3c2=O)[C@H](O)[C@@H](O)[C@@H]1O | inactive |
| O=c1cc(-c2ccccc2)oc2cc(O)cc(O)c12 | inactive |

tested on: RBL-2H3; experiment: Antiallergic activity in IgE-sensitized rat RBL2H3 cells assessed as inhibition of A-23187-stimulated beta hexaminidase release relative to control; format: functional, cell-based; settings: not given

| Molecule | Activity |
| --- | --- |
| O=C(/C=C/c1ccccc1)Oc1cc(O)c2c(=O)cc(-c3ccccc3)oc2c1 | Active |
| O=c1c(O)c(-c2ccc(O)cc2)oc2cc(O)cc(O)c12 | Active |
| O=C(/C=C/c1ccc(O)cc1)OC[C@H]1O[C@@H](Oc2c(-c3ccc(O)cc3)oc3cc(O)cc(O)c3c2=O)[C@H](O)[C@@H](O)[C@@H]1O | Active |
| O=c1cc(-c2ccccc2)oc2cc(O)cc(O)c12 | Active |

tested on: Radical scavenging activity; experiment: Antioxidant activity assessed as radical DPPH scavenging activity; format: functional; settings: not given

| Molecule | ED50 |
| --- | --- |
| O=C(O[C@@H]1Cc2c(O)cc(O)cc2O[C@@H]1c1cc(O)c(O)c(O)c1)c1cc(O)c(O)c(O)c1 | 7 µM |
| VITAMIN E | 78 µM |
| O=C(/C=C/c1ccccc1)Oc1cc(O)c2c(=O)cc(-c3ccccc3)oc2c1 | < 100 µM |
| O=c1c(O)c(-c2ccc(O)cc2)oc2cc(O)cc(O)c12 | < 100 µM |
| O=C1O[C@H]([C@@H](O)CO)C(O)=C1O | 18 µM |
| O=C(/C=C/c1ccc(O)cc1)OC[C@H]1O[C@@H](Oc2c(-c3ccc(O)cc3)oc3cc(O)cc(O)c3c2=O)[C@H](O)[C@@H](O)[C@@H]1O | < 100 µM |
| O=c1cc(-c2ccccc2)oc2cc(O)cc(O)c12 | < 100 µM |

target: T2, 1-phosphatidylinositol 4,5-bisphosphate phosphodiesterase gamma-2 (Rattus norvegicus) (UniProt P24135); experiment: Inhibition of PLCgamma2 phosphorylation in DNP-BSA-stimulated rat RBL2H3 cells by Western blotting; format: cell-based; settings: RBL-2H3
T2 sequence (whole entry): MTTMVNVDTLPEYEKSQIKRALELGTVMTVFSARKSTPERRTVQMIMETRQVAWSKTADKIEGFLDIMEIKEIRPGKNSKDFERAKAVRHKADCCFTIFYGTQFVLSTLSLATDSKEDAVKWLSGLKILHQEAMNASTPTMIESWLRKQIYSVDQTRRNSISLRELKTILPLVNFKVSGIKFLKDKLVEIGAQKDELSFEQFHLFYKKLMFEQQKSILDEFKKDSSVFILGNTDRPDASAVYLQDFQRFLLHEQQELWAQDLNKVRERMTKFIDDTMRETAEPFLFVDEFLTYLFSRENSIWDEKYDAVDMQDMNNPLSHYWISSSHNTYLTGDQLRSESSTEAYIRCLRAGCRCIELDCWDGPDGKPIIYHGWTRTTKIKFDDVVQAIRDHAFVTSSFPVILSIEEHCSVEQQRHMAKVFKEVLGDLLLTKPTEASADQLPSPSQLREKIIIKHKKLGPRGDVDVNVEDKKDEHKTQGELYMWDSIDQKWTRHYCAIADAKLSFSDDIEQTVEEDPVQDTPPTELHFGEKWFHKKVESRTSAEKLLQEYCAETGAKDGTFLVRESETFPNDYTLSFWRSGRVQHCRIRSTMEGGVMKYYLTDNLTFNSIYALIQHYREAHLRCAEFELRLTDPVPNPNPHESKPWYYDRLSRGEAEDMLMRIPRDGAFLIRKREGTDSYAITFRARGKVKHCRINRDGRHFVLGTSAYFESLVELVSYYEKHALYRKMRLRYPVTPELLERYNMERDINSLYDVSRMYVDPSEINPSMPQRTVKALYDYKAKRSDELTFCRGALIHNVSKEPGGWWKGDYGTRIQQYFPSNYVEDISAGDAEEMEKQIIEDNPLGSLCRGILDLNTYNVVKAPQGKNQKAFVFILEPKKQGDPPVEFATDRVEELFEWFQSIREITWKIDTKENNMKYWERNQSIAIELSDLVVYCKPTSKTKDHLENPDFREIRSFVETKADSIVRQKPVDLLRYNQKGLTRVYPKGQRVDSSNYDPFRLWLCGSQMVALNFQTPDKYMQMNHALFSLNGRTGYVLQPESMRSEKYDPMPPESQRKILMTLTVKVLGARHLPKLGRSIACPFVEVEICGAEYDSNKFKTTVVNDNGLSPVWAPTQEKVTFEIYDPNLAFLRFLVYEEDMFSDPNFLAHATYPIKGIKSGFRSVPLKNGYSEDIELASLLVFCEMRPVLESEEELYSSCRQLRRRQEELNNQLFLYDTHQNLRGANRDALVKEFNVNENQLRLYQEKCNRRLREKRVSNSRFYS

| Molecule | Activity |
| --- | --- |
| O=C(O[C@@H]1Cc2c(O)cc(O)cc2O[C@@H]1c1cc(O)c(O)c(O)c1)c1cc(O)c(O)c(O)c1 | inactive |
| O=C(/C=C/c1ccccc1)Oc1cc(O)c2c(=O)cc(-c3ccccc3)oc2c1 | inactive |
| O=c1c(O)c(-c2ccc(O)cc2)oc2cc(O)cc(O)c12 | Active |
| O=C(/C=C/c1ccc(O)cc1)OC[C@H]1O[C@@H](Oc2c(-c3ccc(O)cc3)oc3cc(O)cc(O)c3c2=O)[C@H](O)[C@@H](O)[C@@H]1O | inactive |
| O=c1cc(-c2ccccc2)oc2cc(O)cc(O)c12 | inactive |

tested on: RBL-2H3; experiment: Antiallergic activity in IgE-sensitized rat RBL2H3 cells assessed as inhibition of DNP-BSA-stimulated beta hexaminidase release relative to control; format: functional, cell-based; settings: not given

| Molecule | inhibition |
| --- | --- |
| O=C(/C=C/c1ccccc1)Oc1cc(O)c2c(=O)cc(-c3ccccc3)oc2c1 | Active |
| O=c1c(O)c(-c2ccc(O)cc2)oc2cc(O)cc(O)c12 | Active |
| O=C(/C=C/c1ccc(O)cc1)OC[C@H]1O[C@@H](Oc2c(-c3ccc(O)cc3)oc3cc(O)cc(O)c3c2=O)[C@H](O)[C@@H](O)[C@@H]1O | Active |
| O=c1cc(-c2ccccc2)oc2cc(O)cc(O)c12 | Active |
